The values that follow come from US20120035251A1, “THIOPHENE INHIBITORS OF IKK-B SERINE-THREONINE PROTEIN KINASE” (CHROMA THERAPEUTICS LD., priority 2009, published 2012).

Read-outs that look alike come from different tables or passages of the source.

The subject of series [1] is TNF-α production in THP-1 cells. Put plainly: LPS-stimulation of THP-1 cells, TNF-α by ELISA. Conditions: Homo sapiens. It counts as cell-based. How it is done:
THP-1 cells were plated in 100 μl at a density of 4×10^4 cells/well in V-bottomed 96 well tissue culture treated plates and incubated at 37° C. in 5% CO2 for 16 hours. 2 hours after the addition of the inhibitor in 100 μl of tissue culture media, the cells were stimulated with LPS (E coli strain 005:B5, Sigma) at a final concentration of 1 μg/ml and incubated at 37° C. in 5% CO2 for 6 hrs. TNF-α levels were measured from cell-free supernatants by sandwich ELISA (R&D Systems #QTA00B).
On the technique in general: ELISA stands for enzyme-linked immunosorbent assay.

Series [2] relates to U937 (monocyte cell line) cells. Put plainly: Intact cell accumulation assay, U937 cells. It counts as in vitro ADME. The following applies: 6 μmol/L compound. The procedure:
(§1) Cells (4×10^4/mL) were incubated at 37° C. in culture medium containing 6 μmol/L compound in a 5% (v/v) CO2-humidified atmosphere. Incubations were terminated after 6 h by centrifugation of 25 mL aliquots of the cell suspension at 1500 rpm for 5 min at 4° C. 0.2 mL samples of the culture media supernatants were added to four volumes of acetonitrile. After decanting the supernatant, the residual cell pellet (10^6 cells) was extracted into 1 mL of acetonitrile. Samples were then analyzed for the ester and acid metabolite at room temperature by LC/MS/MS (Sciex API3000). Chromatography was based on a MeCN (75×21 mm) column with a 5% to 95% (v/v) acetonitrile/water, 0.1% (v/v) formic acid mobile phase. For the zero time samples, the cell suspension was chilled and centrifuged as soon as the ester had been added and then extracted into acetonitrile as described. Levels in cells are expressed as ng/mL.

Another series has as its target T1, IKKβ (Homo sapiens, UniProt O14920).
T1 construct: purchased Invitrogen (Paisley, UK)
T1 sequence (O14920 1-756): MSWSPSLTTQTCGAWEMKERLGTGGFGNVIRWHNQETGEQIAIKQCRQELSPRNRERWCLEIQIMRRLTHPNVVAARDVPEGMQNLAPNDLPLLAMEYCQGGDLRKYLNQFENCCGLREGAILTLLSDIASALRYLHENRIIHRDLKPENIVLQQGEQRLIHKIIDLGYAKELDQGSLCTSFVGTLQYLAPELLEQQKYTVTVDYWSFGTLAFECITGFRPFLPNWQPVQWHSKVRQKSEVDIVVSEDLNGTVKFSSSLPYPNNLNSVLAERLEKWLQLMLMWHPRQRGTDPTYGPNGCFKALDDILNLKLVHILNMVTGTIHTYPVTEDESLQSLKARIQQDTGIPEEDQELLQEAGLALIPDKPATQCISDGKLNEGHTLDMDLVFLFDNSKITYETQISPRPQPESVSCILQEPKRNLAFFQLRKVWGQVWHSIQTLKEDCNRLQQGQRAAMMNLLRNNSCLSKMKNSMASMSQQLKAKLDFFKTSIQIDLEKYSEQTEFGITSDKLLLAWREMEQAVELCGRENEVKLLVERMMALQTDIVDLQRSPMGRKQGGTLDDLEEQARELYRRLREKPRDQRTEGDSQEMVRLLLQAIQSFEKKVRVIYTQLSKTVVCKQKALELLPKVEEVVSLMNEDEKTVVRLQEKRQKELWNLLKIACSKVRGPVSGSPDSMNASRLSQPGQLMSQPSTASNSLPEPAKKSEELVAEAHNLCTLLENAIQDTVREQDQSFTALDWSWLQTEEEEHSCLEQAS
Put plainly: IKKβ enzyme assay (Z'-LYTE, Invitrogen). In kind it is biochemical. The procedure:
The ability of compounds to inhibit IKKβ kinase activity was measured in an assay performed by Invitrogen (Paisley, UK). The Z′-LYTE™ biochemical assay employs a fluorescence-based, coupled-enzyme format and is based on the differential sensitivity of phosphorylated and non-phosphorylated peptides to proteolytic cleavage. The peptide substrate is labelled with two fluorophores—one at each end—that make up a FRET pair. In the primary reaction, the kinase transfers the gamma-phosphate of ATP to a single serine or threonine residue in a synthetic FRET-peptide. In the secondary reaction, a site-specific protease recognizes and cleaves non-phosphorylated FRET-peptides. Phosphorylation of FRET-peptides suppresses cleavage by the Development Reagent. Cleavage disrupts FRET between the donor (i.e., coumarin) and acceptor (i.e. fluorescein) fluorophores on the FRET-peptide, whereas uncleaved, phosphorylated FRET-peptides maintain FRET. A […] method, which calculates the ratio (the Emission Ratio) of donor emission to acceptor emission after excitation of the donor fluorophore at 400 nm, is used to quantitate reaction progress.
The final 10 μL Kinase Reaction consists of 0.9-8.0 ng IκBKB (IKKβ), 2 μM Ser/Thr 05 Peptide and ATP in 50 mM HEPES pH 7.5, 0.01% BRIJ-35, 10 mM MgCl2, 1 mM EGTA. The assay is performed at an ATP concentration at, or close to the Km. After the 60 minute Kinase Reaction incubation at room temperature, 5 μL of a 1:128 dilution of Development Reagent is added. The assay plate is incubated for a further 60 minutes at room temperature and read on a fluorescence plate reader.
Duplicate data points are generated from a 1/3 log dilution series of a stock solution of test compound in DMSO. Nine dilutions steps are made from a top concentration of 10 μM, and a ‘no compound’ blank is included. Data is collected and analysed using XLfit software from IDBS. The dose response curve is curve fitted to model number 205 (sigmoidal dose-response model). From the curve generated, the concentration giving 50% inhibition is determined and reported.

The subject of series [3] is TNF-α production in human whole blood. Put plainly: LPS-stimulation of human whole blood, TNF-α by ELISA. It counts as cell-based. The procedure: Whole blood was taken by venous puncture using heparinised vacutainers (Becton Dickinson) and diluted in an equal volume of RPMI1640 tissue culture media (Sigma). 100 μl was plated in V-bottomed 96 well tissue culture treated plates. 2 hours after the addition of the inhibitor in 100 μlof RPMI1640 media, the blood was stimulated with LPS (E coli strain 005:B5, Sigma) at a final concentration of 100 ng/ml and incubated at 37° C. in 5% CO2 for 6 hours. TNF-α levels were measured from cell-free supernatants by sandwich ELISA (R&D Systems #QTA00B).

Series [4] concerns HUT78 (non-monocyte cell line) cells. Put plainly: Intact cell accumulation assay, HUT78 cells. Conditions: 6 μmol/L compound. In kind it is in vitro ADME. The procedure: as §1
Setting [5] is: THP-1, read-out: Inhibition of TNF-α production in THP-1 cells (IC50).
[6] abbreviates: LPS-stimulated THP-1 cells, TNF-α, read-out: IC50 (nM) THP-1.
The mark [7] stands for this setting: compound as drawn (Ester for the Example 1 row), read-out: Inhibition of IKKβ (IC50 nM).
[8] abbreviates: read-out: IC50 (nM) IKKβ Enzyme.
[9] abbreviates: LPS-stimulated human whole blood, TNF-α, read-out: IC50 (nM) Human Whole Blood.

Take `CC(C)C[C@H](NCc1ccc(Cc2cc(C(N)=O)c(NC(N)=O)s2)cc1)C(=O)OC1CCCC1` [Example 1, Cyclopentyl N-(4-{[4-carbamoyl-5-(carbamoylamino)-2-thienyl]methyl}benzyl)-L-leucinate]: the IC50 (in general, the concentration that inhibits the measured activity by half) in series [1] (setting [5]) was 1940 nM; in series [1] (setting [6]) it was 500 to 5000 nM; at IKKβ (Acid: the acid of the drawn ester (Example 1), read-out: Inhibition of IKKβ (IC50 nM), Acid), 369 nM; at IKKβ (setting [7]), 10000 nM; on IKKβ (setting [8]), more than 5000 nM; in series [3] (Homo sapiens, read-out: Inhibition of TNF-α production in human whole blood (IC50)) it was 497 nM. Also, the IC50 in series [3] (setting [9]) is less than 500 nM. The “Concentration in U937 cell line” value was 420 ng/10^6 cells in series [2] (0 hrs incubation) and 217 ng/10^6 cells in series [2] (6 hrs incubation). The “Ratio of whole blood IC50 to enzyme IC50” value in series [3] was determined as 0.05. The “Concentration in HUT78 cell line” value in series [4] (0 hrs incubation) stood at 466 ng/10^6 cells; in series [4] (6 hrs incubation) it was 465 ng/10^6 cells.
Take `CC(C)C[C@H](NCc1ccc(Cc2cc(C(N)=O)c(NC(N)=O)s2)cc1)C(=O)OC(C)(C)C` [Example 2, tert-Butyl N-(4-{[4-carbamoyl-5-(carbamoylamino)-2-thienyl]methyl}benzyl)-L-leucinate]: the IC50 was more than 5000 nM in series [1] (setting [6]), 500 to 5000 nM on IKKβ (setting [8]) and more than 5000 nM in series [3] (setting [9]).
Regarding `CC(C)C[C@H](NCc1ccc(CCc2cc(C(N)=O)c(NC(N)=O)s2)cc1)C(=O)OC1CCCC1` [Example 3, Cyclopentyl N-(4-{2-[4-carbamoyl-5-(carbamoylamino)-2-thienyl]ethyl}benzyl)-L-leucinate], the IC50 in series [1] (setting [6]) is more than 5000 nM; at IKKβ (setting [8]) it was more than 5000 nM; in series [3] (setting [9]), 500 to 5000 nM.
Consider `CC(C)C[C@H](NCc1ccc(C#Cc2cc(C(N)=O)c(NC(N)=O)s2)cc1)C(=O)OC1CCCC1` [Example 4, Cyclopentyl N-(4-{[4-carbamoyl-5-(carbamoylamino)-2-thienyl]ethynyl}benzyl)-L-leucinate], for which the figures for the IC50 (in series [1] (setting [6]); on IKKβ (setting [8]); in series [3] (setting [9])) were 500 to 5000 nM, more than 5000 nM and 500 to 5000 nM, respectively.
Take `CC(C)C[C@H](NCc1ccc(Cc2cc(C(N)=O)c(NC(N)=O)s2)cc1)C(=O)O` [Example 5, N-(4-{[4-Carbamoyl-5-(carbamoylamino)-2-thienyl]methyl}benzyl)-L-leucine]: the “Concentration in U937 cell line” value in series [2] (0 hrs incubation) is 68 ng/10^6 cells; in series [2] (6 hrs incubation), 286 ng/10^6 cells. For the same molecule, the IC50 on IKKβ (setting [8]) was less than 500 nM. Also, the “Concentration in HUT78 cell line” value in series [4] (0 hrs incubation) is 0 ng/10^6 cells.
Regarding `CC(C)C[C@H](NCc1ccc(CCc2cc(C(N)=O)c(NC(N)=O)s2)cc1)C(=O)O` [Example 6, N-(4-{2-[4-Carbamoyl-5-(carbamoylamino)-2-thienyl]ethyl}benzyl)-L-leucine], the IC50 on IKKβ (setting [8]) is 500 to 5000 nM.
As to `NC(=O)Nc1sc(Cc2ccccc2)cc1C(N)=O` [reference compound], the IC50 in series [1] (setting [5]) came to 2710 nM; on IKKβ (setting [7]), 486 nM. Also, in series [3], the “Ratio of whole blood IC50 to enzyme IC50” value is reported as more than 20. For the same molecule, in series [3] (Homo sapiens, @10 μM, read-out: Inhibition of TNF-α production in human whole blood, % at single concentration), the inhibition at 10 µM turned out to be 28%.
